Consider five molecules from patent publication US20230320978A1, “COMPOSITIONS AND METHODS FOR LOWERING INTRACRANIAL PRESSURE” (THE REGENTS OF THE UNIVERSITY OF COLORADO, A BODY CORPORATE, priority 2020, published 2023).

Type in all cases: in vivo
Assay [1] relates to C57/BL6 mice. Nature of the assay: Tracer recovery from nasal mucosa after single intranasal dose and ventricular injection of fluorescent tracer. Particulars: single intranasal dose; for increase in nasal tracer recovery relative to vehicle-treated controls: commercial concentrations, p<0.05 vs control; for nasal tracer recovery at higher doses: higher doses than the commercial concentration (5x or 10x); for increase in tracer recovery from the nasal mucosa relative to control animals: p<0.001 compared to control. As to the method: In another exemplary method, compositions including prostaglandin F2-alpha analogues were used to analyze increased lymphatic channel contractility in the nasal mucosa of experimental animals. In this example, prostaglandin F2-alpha analogues latanoprost, bimatoprost, travoprost, latanoprostene bunod, and tafluprost were administered via an intranasal vehicle into the nasal mucosa of mice.
In this example, a total of 67 animals were studied using a scaled dosing technique in which each prostaglandin analog was evaluated at its commercial ophthalmic concentration as well as one or two more concentrated forms (either 5× or 10×).
Commercially available prostaglandin F2-alpha analogues used in the treatment of glaucoma were selected for evaluation; these included latanoprost, bimatoprost, travoprost, latanoprostene bunod, and tafluprost. Initial experiments were conducted with topical ophthalmic preparations, and pharmaceutical grade drug also was obtained and placed into solution for use in a more concentrated form. Agents were solubilized in DMSO and diluted in normal saline.
For single inhalation trails described herein, awake adult male and female C57/BL6 mice (approx. 6 weeks of age) were administered intranasal vehicle (10% DMSO) or drug solution (total 8 μl) by placing droplets (1-2 μl) of liquid at the nares using a micropipette and allowing the animal to inhale the liquid spontaneously. Anesthesia with ketamine and xylazine was administered via intraperitoneal injection, and anesthetized animals were placed within a stereotaxic apparatus. For multiday studies, intranasal drug administration was performed on awake animals daily using the same procedure described above. Approximately 6 hours after the third daily dose was given, animals were anesthetized and placed within a stereotaxic apparatus. A midline incision was created along the scalp, and the right lateral ventricle was targeted with placement of a 26-gauge needle to a depth of 3 mm into the brain at a position 1 mm lateral and 0.3 mm anterior to bregma. A 5 μl intraventricular injection of fluorescent tracer (AlexaFluor^647-ovalbumin solution) was delivered at a rate of 100 nl/seconds using a Hamilton syringe and an electric pump. Animals remained anesthetized for the 1 hour recovery period post injection and were then euthanized with a lethal overdose of ketamine followed by secondary cervical dislocation. Nasal turbinates were harvested, and tissue extracts were analyzed by ELISA.
The experimental technique was validated by evaluating recovery of fluorescent tracer from nasal mucosa after ventricular injection in the absence of intranasal treatment. Time points for tissue harvest were selected based on increased recovery at 60 minutes versus 30 minutes, with later harvest raising concern for potential contamination of specimens by hematogenous CSF absorption and recirculation of tracer throughout the tissues via arterial flow.
Statistical analyses were conducted with Stata using either two-tailed Student's t-tests or ANOVA RM with Dunnet's post hoc analysis.

Assay [2] relates to C57/BL6 mice. Described as above. Particulars: single inhalation, lower doses, p<0.05 relative to controls.
Assay [3] concerns C57/BL6 mice. Put plainly: Tracer recovery from nasal turbinates after intranasal dosing once a day for three consecutive days. Particulars: 0.1, 0.5 or 1 mg/ml once a day for 3 days. The protocol: In another example, an additional 14 animals were administered inhaled doses of latanoprost (either 0.1, 0.5, or 1 mg/ml) once a day for three (3) consecutive days. Nasal turbinates were isolated 1 hour after ventricular tracer injection and between 7 and 9 hours after the final latanoprost dose was given intranasally according to the exemplary methods described herein.
For single inhalation trails described herein, awake adult male and female C57/BL6 mice (approx. 6 weeks of age) were administered intranasal vehicle (10% DMSO) or drug solution (total 8 μl) by placing droplets (1-2 μl) of liquid at the nares using a micropipette and allowing the animal to inhale the liquid spontaneously. Anesthesia with ketamine and xylazine was administered via intraperitoneal injection, and anesthetized animals were placed within a stereotaxic apparatus. For multiday studies, intranasal drug administration was performed on awake animals daily using the same procedure described above. Approximately 6 hours after the third daily dose was given, animals were anesthetized and placed within a stereotaxic apparatus. […] Nasal turbinates were harvested, and tissue extracts were analyzed by ELISA. […]

As for `CCNC(=O)CCC/C=C\C[C@@H]1[C@@H](/C=C/[C@@H](O)CCc2ccccc2)[C@H](O)C[C@@H]1O` [bimatoprost], in the assay on C57/BL6 mice [1], the “increase in nasal tracer recovery relative to vehicle-treated controls” value is listed as “approximately 1.5 fold” and the “nasal tracer recovery at higher doses” value is “did not appear to improve at higher doses”. Besides, in the assay on C57/BL6 mice [2], the “tracer recovery relative to controls, fluorometric analysis of nasal turbinate homogenates (words, FIG. 3)” value is listed as “Some enhanced tracer recovery relative to controls”.
In the case of `CC(C)OC(=O)CCC/C=C\C[C@@H]1[C@@H](CC[C@@H](O)CCc2ccccc2)[C@H](O)C[C@@H]1O` [latanoprost, isopropyl (Z)-7-[(1R,2R,3R,5S)-3,5-dihydroxy-2-[(3R)3-hydroxy-5-phenylpentyl]-cyclopentyl] hept-5-enoate], the “increase in tracer recovery from the nasal mucosa relative to control animals” value with C57/BL6 mice [1] (0.5 mg/ml solution, after 60 minutes) was “approximately 10 fold”; in the assay with C57/BL6 mice [1] (1 mg/ml solution, after 60 minutes) it was “approximately 10 fold”. In the assay on C57/BL6 mice [1] (0.1 to 1 mg/ml, after 60 minutes), the “dose dependence of the increase in tracer recovery from the nasal mucosa” value is reported as “semi dose-dependent increase”. Moreover, the “tracer recovery compared with all tested prostaglandin analogs and 0.1 mg/ml latanoprost” value with C57/BL6 mice [1] (concentrated 0.5 mg/ml and 1 mg/ml) was “significant increase in tracer recovery over all tested prostaglandin analogs and 0.1 mg/ml latanoprost”. The “increased tracer recovery vs control” value in the assay with C57/BL6 mice [1] (standard ophthalmic dose 0.1 mg/ml, p<0.01 vs control) is reported as “approximately 6 fold”. The “difference in tracer recovery amongst the 3 doses” value in the assay on C57/BL6 mice [3] is “no statistically significant difference”. For the same molecule, the “increase in tracer recovery relative to controls” value in the assay on C57/BL6 mice [3] (turbinates isolated 1 hour after tracer injection, 7 to 9 hours after final dose, p<0.05) is about 3 fold.
Turning to `O=C(CCC/C=C\C[C@@H]1[C@@H](CC[C@@H](O)CCc2ccccc2)[C@H](O)C[C@@H]1O)OCCCCO[N+](=O)[O-]` [latanoprostene bunod], the “effect on nasal tracer recovery at any tested dose” value with C57/BL6 mice [1] is recorded as “Neither travoprost nor latanoprostene bunod demonstrated a measurable effect”.
In the case of `CC(C)OC(=O)CCC/C=C\C[C@@H]1[C@@H](/C=C/C(F)(F)COc2ccccc2)[C@H](O)C[C@@H]1O` [tafluprost], in the assay with C57/BL6 mice [1], the “increase in nasal tracer recovery relative to vehicle-treated controls” value was “approximately 1.5 fold” and the “nasal tracer recovery at higher doses” value is listed as “did not appear to improve at higher doses”. In addition, the “tracer recovery relative to controls, fluorometric analysis of nasal turbinate homogenates (words, FIG. 3)” value in the assay on C57/BL6 mice [2] was “Some enhanced tracer recovery relative to controls”.
In the case of `CC(C)OC(=O)CCC/C=C\C[C@@H]1[C@@H](/C=C/[C@@H](O)COc2cccc(C(F)(F)F)c2)[C@H](O)C[C@@H]1O` [travoprost], the “effect on nasal tracer recovery at any tested dose” value in the assay with C57/BL6 mice [1] was “Neither travoprost nor latanoprostene bunod demonstrated a measurable effect”.
